Experiments:
DPP-IV = DPP-IV (Homo sapiens, UniProt P27487); assay: Tolerance of GLP-1 and its analogues to DPP-IV (RP-HPLC remaining peak area); assay type: in vitro ADME; conditions: peptide 25 μM, DPP-IV 0.5 ng/μL, 37° C.; for Remaining peak area (%)/DPP-IV: 0.0 h; for remaining at 0.5 h, 25 μM / remaining at 2 h, 25 μM / remaining at 4 h, 25 μM / remaining at 8 h, 25 μM / remaining at 12 h, 25 μM: isolated DPP-IV enzyme in buffer, pH 8
Protocol: (§1) Mix by centrifugation at 8000 rpm for 30 seconds.
(2) Arrange a certain volume of 0.005 μg/μL DPP-IV solution in another sterile EP.

NEP24.11 = NEP24.11 (Homo sapiens, UniProt P08473); assay: Tolerance of GLP-1 and its analogues to NEP24.11 (RP-HPLC remaining peak area); assay type: in vitro ADME; conditions: for Remaining peak area (%)/NEP24.11: 0.0 h; for Remaining peak area (%)/NEP24.11 / remaining at 0.5 h, 30 μM / remaining at 2 h, 30 μM / remaining at 4 h, 30 μM / remaining at 8 h, 30 μM: peptide 30 μM, NEP24.11 1.0 ng/μL, 37° C.; for remaining at 0.5 h, 30 μM / remaining at 2 h, 30 μM / remaining at 4 h, 30 μM / remaining at 8 h, 30 μM: isolated NEP24.11 enzyme in buffer; for remaining at 0.5 h, 30 μM: pH 7.4, 0.5 h; for remaining at 2 h, 30 μM: pH 7.4, 2.0 h; for remaining at 4 h, 30 μM: pH 7.4, 4.0 h; for remaining at 8 h, 30 μM: pH 7.4, 8.0 h, read-out: Remaining peak area (%)/NEP24.11
Sequence of NEP24.11 (P08473 whole entry): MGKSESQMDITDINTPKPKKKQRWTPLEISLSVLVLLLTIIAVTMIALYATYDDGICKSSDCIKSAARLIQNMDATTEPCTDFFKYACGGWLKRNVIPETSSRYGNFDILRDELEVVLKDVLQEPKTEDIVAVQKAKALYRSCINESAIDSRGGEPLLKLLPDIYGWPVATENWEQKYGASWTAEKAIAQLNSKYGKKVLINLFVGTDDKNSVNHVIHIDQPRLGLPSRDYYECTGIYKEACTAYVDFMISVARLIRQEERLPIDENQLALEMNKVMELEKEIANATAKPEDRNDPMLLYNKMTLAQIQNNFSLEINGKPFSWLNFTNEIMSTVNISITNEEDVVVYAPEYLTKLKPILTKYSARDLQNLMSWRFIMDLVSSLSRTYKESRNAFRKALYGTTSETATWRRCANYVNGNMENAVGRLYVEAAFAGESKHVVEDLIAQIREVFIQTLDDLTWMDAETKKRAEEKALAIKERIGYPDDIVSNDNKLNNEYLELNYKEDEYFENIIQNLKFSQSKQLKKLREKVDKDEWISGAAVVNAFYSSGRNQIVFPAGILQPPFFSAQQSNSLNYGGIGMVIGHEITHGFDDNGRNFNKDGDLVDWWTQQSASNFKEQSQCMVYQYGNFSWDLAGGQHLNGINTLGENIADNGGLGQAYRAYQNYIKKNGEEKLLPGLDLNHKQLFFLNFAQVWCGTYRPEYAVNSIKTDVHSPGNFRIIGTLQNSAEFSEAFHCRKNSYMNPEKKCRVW
Protocol: as §1
Arrange a certain volume of 0.04 μg/μL NEP24.11 enzyme solution in another sterile EP.

trypsin = target: T1, trypsin (Bos taurus, UniProt P00760); assay: in vitro; conditions: isolated enzyme trypsin, pH 7.8
T1 sequence (P00760 24-246): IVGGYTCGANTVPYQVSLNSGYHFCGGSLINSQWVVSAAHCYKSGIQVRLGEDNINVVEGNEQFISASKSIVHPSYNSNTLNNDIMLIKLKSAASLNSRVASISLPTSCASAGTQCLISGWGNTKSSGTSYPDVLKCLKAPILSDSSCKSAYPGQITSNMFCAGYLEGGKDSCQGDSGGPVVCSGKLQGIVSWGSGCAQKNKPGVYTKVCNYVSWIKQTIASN
Method in brief: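 Peptides were preincubated for 5 min at 37 °C and then digested with 0.05 μg/μL trypsin solution (stock). Remaining intact peptide was quantified as RP-HPLC peak area.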

chymotrypsin = chymotrypsin (Bos taurus, UniProt P00766); assay: in vitro; conditions: isolated enzyme chymotrypsin, pH 7.8, Remaining peak area (%)/chymotrypsin
Method in brief: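 Peptide and 0.05 μg/μL chymotrypsin were preincubated at 37 °C for 5 min, then mixed. Aliquots taken from 1.5 up to 60.0 min were quenched with 10% TFA, and remaining peptide was measured as RP-HPLC peak area.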

Sequence of DPP-IV (P27487 whole entry, species assumed): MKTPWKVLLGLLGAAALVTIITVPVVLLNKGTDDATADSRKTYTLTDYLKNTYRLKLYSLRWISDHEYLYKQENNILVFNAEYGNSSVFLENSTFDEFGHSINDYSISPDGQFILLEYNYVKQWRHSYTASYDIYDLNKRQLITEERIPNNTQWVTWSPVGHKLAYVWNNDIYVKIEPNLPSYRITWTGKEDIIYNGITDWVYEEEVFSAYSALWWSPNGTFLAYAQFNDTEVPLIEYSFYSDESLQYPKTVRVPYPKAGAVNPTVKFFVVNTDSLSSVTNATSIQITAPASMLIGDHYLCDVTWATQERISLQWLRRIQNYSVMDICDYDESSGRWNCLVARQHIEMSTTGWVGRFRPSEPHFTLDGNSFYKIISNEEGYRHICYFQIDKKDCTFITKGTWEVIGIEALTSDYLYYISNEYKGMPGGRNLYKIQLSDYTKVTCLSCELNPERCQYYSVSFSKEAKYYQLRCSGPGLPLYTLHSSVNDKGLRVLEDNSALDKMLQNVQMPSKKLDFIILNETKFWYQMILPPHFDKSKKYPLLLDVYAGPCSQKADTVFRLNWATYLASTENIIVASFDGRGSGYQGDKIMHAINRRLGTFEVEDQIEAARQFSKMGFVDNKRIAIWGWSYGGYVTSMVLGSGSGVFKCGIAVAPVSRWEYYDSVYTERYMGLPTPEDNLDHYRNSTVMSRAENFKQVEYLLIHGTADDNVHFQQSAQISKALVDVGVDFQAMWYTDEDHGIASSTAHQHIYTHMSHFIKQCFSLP

| Compound | Remaining peak area (%)/DPP-IV (DPP-IV) [%] | remaining at 0.5 h, 25 μM (DPP-IV) [%] | remaining at 2 h, 25 μM (DPP-IV) [%] | remaining at 4 h, 25 μM (DPP-IV) [%] | remaining at 8 h, 25 μM (DPP-IV) [%] | remaining at 12 h, 25 μM (DPP-IV) [%] | Remaining peak area (%)/NEP24.11 (NEP24.11) [%] | remaining at 0.5 h, 30 μM (NEP24.11) [%] | remaining at 2 h, 30 μM (NEP24.11) [%] | remaining at 4 h, 30 μM (NEP24.11) [%] | remaining at 8 h, 30 μM (NEP24.11) [%] | remaining at 0.025 h, 60 μM (trypsin) [%] | remaining at 0.05 h, 60 μM (trypsin) [%] | remaining at 0.075 h, 60 μM (trypsin) [%] | remaining at 0.1 h, 60 μM (trypsin) [%] | remaining at 0.15 h, 60 μM (trypsin) [%] | remaining at 0.025 h, 60 μM (chymotrypsin) [%] | remaining at 0.05 h, 60 μM (chymotrypsin) [%] | remaining at 0.075 h, 60 μM (chymotrypsin) [%] | remaining at 0.1 h, 60 μM (chymotrypsin) [%] | further results |
| --- | --- | --- | --- | --- | --- | --- | --- | --- | --- | --- | --- | --- | --- | --- | --- | --- | --- | --- | --- | --- | --- |
| CC[C@H](C)[C@H](NC(=O)[C@H](Cc1ccccc1)NC(=O)[C@H](CCC(=O)O)NC(=O)[C@H](CCCCN)NC(=O)[C@H](C)NC(=O)[C@H](C)NC(=O)[C@H](CCC(N)=O)NC(=O)CNC(=O)[C@H](CCC(=O)O)NC(=O)[C@H](CC(C)C)NC(=O)[C@H](Cc1ccc(O)cc1)NC(=O)[C@H](CO)NC(=O)[C@H](CO)NC(=O)[C@@H](NC(=O)[C@H](CC(=O)O)NC(=O)[C@H](CO)NC(=O)[C@@H](NC(=O)[C@H](Cc1ccccc1)NC(=O)[C@@H](NC(=O)CNC(=O)[C@H](CCC(=O)O)NC(=O)[C@H](C)NC(=O)[C@H](Cc1c[nH]cn1)NC(=O)CNC(=O)CNC(=O)CNC(=O)CNC(=O)CNC(=O)CNC(=O)CN)[C@@H](C)O)[C@@H](C)O)C(C)C)C(=O)N[C@@H](C)C(=O)N[C@@H](Cc1c[nH]c2ccccc12)C(=O)N[C@@H](CC(C)C)C(=O)N[C@H](C(=O)N[C@@H](CCCCN)C(=O)NCC(=O)N[C@@H](CCCNC(=N)N)C(=O)NCC(=O)O)C(C)C [G7-GLP-1] | 100.0 ± 0.0 | 42.1 ± 15.5 | 51.1 ± 6.5 | 55.3 ± 14.4 | 42.3 ± 9.6 | 34.5 ± 2.1 | 100.0 ± 0.0 | 63 ± 5.1 | 27.2 ± 7.2 | 11.5 ± 0.3 | 0 | 21 ± 2.9 | 17.2 ± 0.8 | 9.8 ± 2.9 | 4.5 ± 0.8 | 3.4 ± 1.7 | 72.1 ± 11.5 | 45.8 ± 6.5 | 38 ± 2.3 | 29.3 ± 4.7 | remaining prototype peptide after DPP-IV treatment (DPP-IV; 12 hours): about 34.5%; degradation by NEP24.11 (in words) (NEP24.11; after 8 hours): almost completely degraded; remaining at 0.15 h, 60 μM (chymotrypsin): 11.3 ± 3.2% |
| CC[C@H](C)[C@H](NC(=O)[C@H](Cc1ccccc1)NC(=O)[C@H](CCC(=O)O)NC(=O)[C@H](CCCCN)NC(=O)[C@H](C)NC(=O)[C@H](C)NC(=O)[C@H](CCC(N)=O)NC(=O)CNC(=O)[C@H](CCC(=O)O)NC(=O)[C@H](CC(C)C)NC(=O)[C@H](Cc1ccc(O)cc1)NC(=O)[C@H](CO)NC(=O)[C@H](CO)NC(=O)[C@@H](NC(=O)[C@H](CC(=O)O)NC(=O)[C@H](CO)NC(=O)[C@@H](NC(=O)[C@H](Cc1ccccc1)NC(=O)[C@@H](NC(=O)CNC(=O)[C@H](CCC(=O)O)NC(=O)[C@H](C)NC(=O)[C@H](Cc1c[nH]cn1)NC(=O)CNC(=O)CNC(=O)[C@H](CCCNC(=N)N)NC(=O)[C@H](CO)NC(=O)[C@H](Cc1ccccc1)NC(=O)[C@H](CCCNC(=N)N)NC(=O)[C@H](CCC(N)=O)NC(=O)CN)[C@@H](C)O)[C@@H](C)O)C(C)C)C(=O)N[C@@H](C)C(=O)N[C@@H](Cc1c[nH]c2ccccc12)C(=O)N[C@@H](CC(C)C)C(=O)N[C@H](C(=O)N[C@@H](CCCCN)C(=O)NCC(=O)N[C@@H](CCCNC(=N)N)C(=O)NCC(=O)NCC(=O)N[C@@H](CCCCN)C(=O)NCC(=O)N[C@@H](CCCNC(=N)N)C(=O)N[C@H]1CSSC[C@@H](C(=O)N[C@@H](Cc2ccccc2)C(=O)N2CCC[C@H]2C(=O)O)NC(=O)[C@H]([C@@H](C)CC)NC(=O)[C@@H]2CCCN2C(=O)[C@@H]2CCCN2C(=O)[C@H]([C@@H](C)CC)NC(=O)[C@H](CO)NC(=O)[C@H](CCCCN)NC(=O)[C@H]([C@@H](C)O)NC1=O)C(C)C [N-GLP-1-BT1] | 100.0 ± 0.0 | 84 ± 0.1 | 80.1 ± 0.9 | 76 ± 1.6 | 74.1 ± 0.5 | 72.1 ± 2 | 100.0 ± 0.0 | 82.3 ± 8.3 | 80.3 ± 2 | 74.4 ± 9.1 | 68.7 ± 8.4 | 89.2 ± 3.7 | 83.2 ± 2.3 | 79.1 ± 1 | 84.4 ± 3.4 | 83.9 ± 0.5 | 79.5 ± 4.9 | 71.8 ± 2.7 | 64.9 ± 1 | 59.8 ± 2.9 | remaining at 0.25 h, 60 μM (trypsin): 84.5 ± 4.9%; remaining at 0.5 h, 60 μM (trypsin): 83.7 ± 3%; remaining at 1 h, 60 μM (trypsin): 83.5 ± 1.4%; remaining at 0.15 h, 60 μM (chymotrypsin): 51.9 ± 1% |
| CC[C@H](C)[C@H](NC(=O)[C@H](Cc1ccccc1)NC(=O)[C@H](CCC(=O)O)NC(=O)[C@H](CCCCN)NC(=O)[C@H](C)NC(=O)[C@H](C)NC(=O)[C@H](CCC(N)=O)NC(=O)CNC(=O)[C@H](CCC(=O)O)NC(=O)[C@H](CC(C)C)NC(=O)[C@H](Cc1ccc(O)cc1)NC(=O)[C@H](CO)NC(=O)[C@H](CO)NC(=O)[C@@H](NC(=O)[C@H](CC(=O)O)NC(=O)[C@H](CO)NC(=O)[C@@H](NC(=O)[C@H](Cc1ccccc1)NC(=O)[C@@H](NC(=O)CNC(=O)[C@H](CCC(=O)O)NC(=O)[C@H](C)NC(=O)[C@H](Cc1c[nH]cn1)NC(=O)CNC(=O)CNC(=O)[C@H](CCCNC(=N)N)NC(=O)[C@H](CO)NC(=O)[C@H](Cc1ccccc1)NC(=O)[C@H](CCCNC(=N)N)NC(=O)[C@H](CCC(N)=O)NC(=O)CN)[C@@H](C)O)[C@@H](C)O)C(C)C)C(=O)N[C@@H](C)C(=O)N[C@@H](Cc1c[nH]c2ccccc12)C(=O)N[C@@H](CC(C)C)C(=O)N[C@H](C(=O)N[C@@H](CCCCN)C(=O)NCC(=O)N[C@@H](CCCNC(=N)N)C(=O)NCC(=O)NCC(=O)N[C@@H](CCCCN)C(=O)NCC(=O)N[C@H]1CSSC[C@@H](C(=O)N[C@@H](Cc2ccccc2)C(=O)O)NC(=O)[C@H]([C@@H](C)CC)NC(=O)[C@@H]2CCCN2C(=O)[C@@H]2CCCN2C(=O)[C@H]([C@@H](C)CC)NC(=O)[C@H](CO)NC(=O)[C@H](CCCCN)NC(=O)[C@H]([C@@H](C)O)NC(=O)[C@H](C)NC(=O)[C@H](CCCNC(=N)N)NC(=O)CNC1=O)C(C)C [N-GLP-1-BT9] | 100.0 ± 0.0 | 90 ± 3 | 89.5 ± 1.8 | 89.6 ± 3.6 | 89.2 ± 1 | 89.3 ± 7.5 | 100.0 ± 0.0 | 85.9 ± 2.8 | 74.9 ± 1.4 | 66.8 ± 2.1 | 52.7 ± 3.9 | 105 ± 3 | 104 ± 2.8 | 102 ± 3 | 104 ± 6.4 | 103 ± 3.5 | 75.5 ± 5.3 | 56.3 ± 2.1 | 47 ± 1.6 | 38.1 ± 2.2 | remaining at 0.25 h, 60 μM (trypsin): 102 ± 4.9%; remaining at 0.5 h, 60 μM (trypsin): 96.4 ± 9.9%; remaining at 1 h, 60 μM (trypsin): 86.3 ± 6.4%; remaining at 0.15 h, 60 μM (chymotrypsin): 24.2 ± 3% |

Source: US20230416329A1, “A PEPTIDE WITH DISULFIDE BONDS AND INHIBITORY ACTIVITY AGAINST SERINE PROTEASES, DERIVED HYBRID PEPTIDES THEREOF, AND USES THEREOF” (INSTITUTE OF MATERIA MEDICA , CHINESE ACADEMY OF MEDICAL …, priority 2020, published 2023)
